From PubChem BioAssay AID2060491 (Molecular Pharmacology Branch, DTP, NCI, 2025)

Tested on: 857933-349-R-J2-PDC complex spheroids, viability
Test: Anticancer human tumor 857933-349-R-J2-PDC patient-derived colon adenocarcinoma cell line growth inhibition [GQUAD]
Conditions: for IC50: curve of first compound; for viability, T/C: stronger effect = lower value
Procedure, shortened: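 Viability of tumor cells grown as complex spheroids with endothelial and stromal cells, exposed to drug combinations. Top concentration at or near clinical Cmax (else 10 microM), diluted in half-log increments.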

[1] = second compound 0.0316 µM, first compound 0.0316 µM
[2] = second compound 0.0316 µM, first compound 0.1 µM
[3] = second compound 0.0316 µM, first compound 0.316 µM
[4] = second compound 0.0316 µM, first compound 1 µM
[5] = second compound 0.0316 µM, first compound 3.16 µM
[6] = second compound 0.0316 µM, first compound 10 µM
[7] = second compound 0.1 µM, first compound 0.0316 µM
[8] = second compound 0.1 µM, first compound 0.1 µM
[9] = second compound 0.1 µM, first compound 0.316 µM
[10] = second compound 0.1 µM, first compound 1 µM
[11] = second compound 0.1 µM, first compound 3.16 µM
[12] = second compound 0.1 µM, first compound 10 µM
[13] = second compound 0.316 µM, first compound 0.0316 µM
[14] = second compound 0.316 µM, first compound 0.1 µM
[15] = second compound 0.316 µM, first compound 0.316 µM
[16] = second compound 0.316 µM, first compound 1 µM
[17] = second compound 0.316 µM, first compound 3.16 µM
[18] = second compound 0.316 µM, first compound 10 µM
[19] = second compound 1 µM, first compound 0.0316 µM
[20] = second compound 1 µM, first compound 0.1 µM
[21] = second compound 1 µM, first compound 0.316 µM
[22] = second compound 1 µM, first compound 1 µM
[23] = second compound 1 µM, first compound 3.16 µM
[24] = second compound 1 µM, first compound 10 µM
[25] = second compound 3.16 µM, first compound 0.0316 µM
[26] = second compound 3.16 µM, first compound 0.1 µM
[27] = second compound 3.16 µM, first compound 0.316 µM
[28] = second compound 3.16 µM, first compound 1 µM
[29] = second compound 3.16 µM, first compound 3.16 µM
[30] = second compound 3.16 µM, first compound 10 µM
[31] = second compound 10 µM, first compound 0.0316 µM
[32] = second compound 10 µM, first compound 0.1 µM
[33] = second compound 10 µM, first compound 0.316 µM
[34] = second compound 10 µM, first compound 1 µM
[35] = second compound 10 µM, first compound 3.16 µM
[36] = second compound 10 µM, first compound 10 µM
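Also: spheroids exposed to compounds for one week before readout.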
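For viability, T/C in this document: percent viability relative to vehicle DMSO wells taken as 100%.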

For `CC(=O)O[C@H]1C(=O)[C@@]2(C)[C@H]([C@H](OC(=O)c3ccccc3)[C@]3(O)C[C@H](OC(=O)[C@H](O)[C@@H](NC(=O)c4ccccc4)c4ccccc4)C(C)=C1C3(C)C)[C@]1(OC(C)=O)CO[C@@H]1C[C@@H]2O` + Cc1cnc(CNC(=O)c2c(=O)c3ccc(N4CCCN(C)CC4)nc3n3c2sc2ccccc23)cn1, which IC50 (second compound 0.0316 µM) is on record?
Its IC50 is less than 31.6 nM.

What about the IC50 (second compound 0.1 µM) of the same compound?
Its IC50 is less than 31.6 nM.

What about the IC50 (second compound 0.316 µM) of the same compound?
Its IC50 is less than 31.6 nM.

And the IC50 (second compound 1 µM)?
Its IC50 is less than 31.6 nM.

What about the IC50 (second compound 3.16 µM) of the same compound?
The IC50 was less than 31.6 nM.

And the IC50 (second compound 10 µM)?
Its IC50 is less than 31.6 nM.

What about the viability, T/C [1] of the same compound?
The viability, T/C was 40.6%.

What about the viability, T/C [2] of the same compound?
Its viability, T/C is 13.7%.

And the viability, T/C [3]?
The viability, T/C was 8.87%.

And the viability, T/C [4]?
The viability, T/C was 6.32%.

What about the viability, T/C [5] of the same compound?
The viability, T/C was 6.9%.

What about the viability, T/C [6] of the same compound?
The viability, T/C was 11.3%.

And the viability, T/C [7]?
The viability, T/C was 31.5%.

What about the viability, T/C [8] of the same compound?
Its viability, T/C is 14%.

And the viability, T/C [9]?
The viability, T/C was 6.78%.

And the viability, T/C [10]?
Its viability, T/C is 6.48%.

And the viability, T/C [11]?
Its viability, T/C is 6.61%.

What about the viability, T/C [12] of the same compound?
Its viability, T/C is 7.71%.

What about the viability, T/C [13] of the same compound?
The viability, T/C was 14.6%.

And the viability, T/C [14]?
Its viability, T/C is 9.67%.

And the viability, T/C [15]?
Its viability, T/C is 5.73%.

What about the viability, T/C [16] of the same compound?
Its viability, T/C is 5.21%.

And the viability, T/C [17]?
Its viability, T/C is 4.57%.

And the viability, T/C [18]?
The viability, T/C was 6.73%.

And the viability, T/C [19]?
The viability, T/C was 3.73%.

And the viability, T/C [20]?
Its viability, T/C is 3.78%.

What about the viability, T/C [21] of the same compound?
Its viability, T/C is 3.68%.

And the viability, T/C [22]?
Its viability, T/C is 2.27%.

And the viability, T/C [23]?
The viability, T/C was 2.21%.

What about the viability, T/C [24] of the same compound?
The viability, T/C was 3.57%.

And the viability, T/C [25]?
The viability, T/C was 2.95%.

And the viability, T/C [26]?
Its viability, T/C is 2.49%.

What about the viability, T/C [27] of the same compound?
The viability, T/C was 1.98%.

And the viability, T/C [28]?
The viability, T/C was 1.77%.

What about the viability, T/C [29] of the same compound?
The viability, T/C was 1.78%.

And the viability, T/C [30]?
Its viability, T/C is 2.45%.

What about the viability, T/C [31] of the same compound?
The viability, T/C was 0.16%.

What about the viability, T/C [32] of the same compound?
Its viability, T/C is 0.18%.

And the viability, T/C [33]?
The viability, T/C was 0.19%.

What about the viability, T/C [34] of the same compound?
Its viability, T/C is 0.14%.

What about the viability, T/C [35] of the same compound?
Its viability, T/C is 0.17%.

And the viability, T/C [36]?
Its viability, T/C is 0.19%.

Which results are given for `COc1cccc2c1C(=O)c1c(O)c3c(c(O)c1C2=O)CC(O)(C(=O)CO)CC3OC1CC(N)C(O)C(C)O1` (stereo not drawn) + Cc1cnc(CNC(=O)c2c(=O)c3ccc(N4CCCN(C)CC4)nc3n3c2sc2ccccc23)cn1?
IC50 (second compound 0.0316 µM): 398 nM; IC50 (second compound 0.1 µM): 212 nM; IC50 (second compound 0.316 µM): < 31.6 nM; IC50 (second compound 1 µM): < 31.6 nM; IC50 (second compound 3.16 µM): < 31.6 nM; IC50 (second compound 10 µM): < 31.6 nM; viability, T/C [1]: 72.5%; viability, T/C [2]: 51.6%; viability, T/C [3]: 54.1%; viability, T/C [4]: 35.8%; viability, T/C [5]: 3.33%; viability, T/C [6]: 0.11%; viability, T/C [7]: 53%; viability, T/C [8]: 57.9%; viability, T/C [9]: 44.4%; viability, T/C [10]: 29.3%; viability, T/C [11]: 2.19%; viability, T/C [12]: 0.13%; viability, T/C [13]: 27.1%; viability, T/C [14]: 29.6%; viability, T/C [15]: 11.8%; viability, T/C [16]: 4.55%; viability, T/C [17]: 0.39%; viability, T/C [18]: 0.1%; viability, T/C [19]: 5.09%; viability, T/C [20]: 6.32%; viability, T/C [21]: 3.38%; viability, T/C [22]: 1.67%; viability, T/C [23]: 0.15%; viability, T/C [24]: 0.09%; viability, T/C [25]: 2.45%; viability, T/C [26]: 2.76%; viability, T/C [27]: 1.56%; viability, T/C [28]: 0.62%; viability, T/C [29]: 0.14%; viability, T/C [30]: 0.12%; viability, T/C [31]: 2.24%; viability, T/C [32]: 2.09%; viability, T/C [33]: 0.73%; viability, T/C [34]: 0.23%; viability, T/C [35]: 0.23%; viability, T/C [36]: 0.19%

What does the source list for `Nc1ccn(C2OC(CO)C(O)C2(F)F)c(=O)n1` (stereo not drawn) + Cc1cnc(CNC(=O)c2c(=O)c3ccc(N4CCCN(C)CC4)nc3n3c2sc2ccccc23)cn1?
IC50 (second compound 0.0316 µM): 168 nM; IC50 (second compound 0.1 µM): 154 nM; IC50 (second compound 0.316 µM): < 31.6 nM; IC50 (second compound 1 µM): < 31.6 nM; IC50 (second compound 3.16 µM): < 31.6 nM; IC50 (second compound 10 µM): < 31.6 nM; viability, T/C [1]: 75.9%; viability, T/C [2]: 52.3%; viability, T/C [3]: 46.6%; viability, T/C [4]: 9.53%; viability, T/C [5]: 6.32%; viability, T/C [6]: 3.33%; viability, T/C [7]: 63.6%; viability, T/C [8]: 61%; viability, T/C [9]: 32.8%; viability, T/C [10]: 9.17%; viability, T/C [11]: 3.78%; viability, T/C [12]: 2.52%; viability, T/C [13]: 28.4%; viability, T/C [14]: 18.3%; viability, T/C [15]: 10.9%; viability, T/C [16]: 3.62%; viability, T/C [17]: 2.32%; viability, T/C [18]: 1.88%; viability, T/C [19]: 5.32%; viability, T/C [20]: 4.52%; viability, T/C [21]: 2.56%; viability, T/C [22]: 1.63%; viability, T/C [23]: 1.61%; viability, T/C [24]: 1.61%; viability, T/C [25]: 2.51%; viability, T/C [26]: 2.77%; viability, T/C [27]: 1.64%; viability, T/C [28]: 1.52%; viability, T/C [29]: 1.19%; viability, T/C [30]: 0.24%; viability, T/C [31]: 1.6%; viability, T/C [32]: 1.03%; viability, T/C [33]: 1.41%; viability, T/C [34]: 0.26%; viability, T/C [35]: 0.21%; viability, T/C [36]: 0.2%

Which results are given for `O=c1[nH]cc(F)c(=O)[nH]1` + Cc1cnc(CNC(=O)c2c(=O)c3ccc(N4CCCN(C)CC4)nc3n3c2sc2ccccc23)cn1?
IC50 (second compound 0.0316 µM): 1500 nM; IC50 (second compound 0.1 µM): 859 nM; IC50 (second compound 0.316 µM): < 31.6 nM; IC50 (second compound 1 µM): < 31.6 nM; IC50 (second compound 3.16 µM): < 31.6 nM; IC50 (second compound 10 µM): < 31.6 nM; viability, T/C [1]: 95%; viability, T/C [2]: 95.9%; viability, T/C [3]: 87.3%; viability, T/C [4]: 60.8%; viability, T/C [5]: 30%; viability, T/C [6]: 18.9%; viability, T/C [7]: 72.2%; viability, T/C [8]: 84.7%; viability, T/C [9]: 64.8%; viability, T/C [10]: 47%; viability, T/C [11]: 26.3%; viability, T/C [12]: 13.6%; viability, T/C [13]: 25.4%; viability, T/C [14]: 29.3%; viability, T/C [15]: 22.8%; viability, T/C [16]: 15.7%; viability, T/C [17]: 11%; viability, T/C [18]: 5.17%; viability, T/C [19]: 5.21%; viability, T/C [20]: 5.61%; viability, T/C [21]: 4.05%; viability, T/C [22]: 4.64%; viability, T/C [23]: 4.34%; viability, T/C [24]: 3.5%; viability, T/C [25]: 2.29%; viability, T/C [26]: 3.17%; viability, T/C [27]: 3.1%; viability, T/C [28]: 2.6%; viability, T/C [29]: 3.16%; viability, T/C [30]: 3.13%; viability, T/C [31]: 1.93%; viability, T/C [32]: 2.51%; viability, T/C [33]: 2.25%; viability, T/C [34]: 1.52%; viability, T/C [35]: 2.21%; viability, T/C [36]: 1.32%
